Source: ChEMBL document CHEMBL1150595, “Isolation and structure elucidation of radical scavengers from Thymus vulgaris leaves” (J Nat Prod, 2002)
The source made the active and inactive calls. The calls are words filed in the database; no cut-off is given here.

Columns and labels:
[1] = system: Radical scavenging activity; assay: Antioxidant activity assessed as DPPH radical scavenging activity after 3 mins; format: functional
[2] = ABTS radical scavenging activity assessed as Trolox equivalent antioxidant capacity after 1 min; format: physicochemical
[3] = system: Radical scavenging activity; assay: Antioxidant activity assessed as DPPH radical scavenging activity after 1 min; format: functional
[4] = system: Radical scavenging activity; assay: Antioxidant activity assessed as DPPH radical scavenging activity at drug-DPPH molar ratio of 1:2 after 15 mins; format: functional
[5] = ABTS radical scavenging activity assessed as Trolox equivalent antioxidant capacity after 6 mins; format: physicochemical; settings: 0.1 h

| Compound | Activity [1] | Ratio [2] | inhibition [3] | inhibition [4] | Ratio [5] |
| --- | --- | --- | --- | --- | --- |
| O=C(/C=C/c1ccc(O)c(O/C(=C\c2ccc(O)c(O)c2)C(=O)O)c1)O[C@H](Cc1ccc(O)c(O)c1)C(=O)O | Active | 0.58 | 70% | 96% | 0.69 |
| O=C(/C=C/c1ccc(O)c(O)c1)O[C@H](Cc1ccc(O)c(O)c1)C(=O)O [ROSMARINIC ACID] |  | 1.5 | 43% | 95% | 1.54 |
